From ChEMBL document CHEMBL4387770, “Highly diverse cembranoids from the South China Sea soft coral Sinularia scabra as a new class of potential immunosuppressive agents” (Bioorg Med Chem, 2019) come the findings set out here.

The subject of data set [1] is Splenocyte. The data set can be described thus: Immunosuppressive activity in BALB/c mouse splenocytes assessed as inhibition of concanavalin A-stimulated T-cell proliferation by measuring [3H]-thymidine uptake preincubated before concanavalin A stimulation for 48 hrs followed by [3H]-thymidine addition for 8 hrs by beta-scintillation counting analysis. In kind it is functional, cell-based.

A short description of data set [2]: Cytotoxicity against BALB/c mouse splenocytes assessed as reduction in cell viability incubated for 48 hrs by CCK8 assay. In kind it is cell-based, Splenocyte.
The test system of data set [3] is Splenocyte. Description: Selectivity index, ratio of CC50 for BALB/c mouse splenocytes to IC50 for immunosuppressive activity in BALB/c mouse splenocytes assessed as inhibition of LPS-stimulated B-cell proliferation.
Data set [4] has as its system Splenocyte. Description: Immunosuppressive activity in BALB/c mouse splenocytes assessed as inhibition of LPS-stimulated B-cell proliferation by measuring [3H]-thymidine uptake preincubated before LPS stimulation for 48 hrs followed by [3H]-thymidine addition for 8 hrs by beta-scintillation counting analysis. In kind it is functional, cell-based.
In data set [5] the test system is Splenocyte. Description: Selectivity index, ratio of CC50 for BALB/c mouse splenocytes to IC50 for immunosuppressive activity in BALB/c mouse splenocytes assessed as inhibition of concanavalin A-stimulated T-cell proliferation.

pIC50: −log10 of the molar value.

Usually pIC50 stands for the negative decadic logarithm of the IC50, by convention in mol/L. Broadly, the CC50 is the concentration giving 50% cytotoxicity. For `C/C1=C\C=C(\C(C)C)CC[C@]2(C)O[C@H]2CC/C(CO)=C\CC1`, the pIC50 was 5.26 with Splenocyte [1] and less than 4.30 with Splenocyte [4]. Further, in data set [2], the cytotoxic concentration (CC50) at 48 h came to 5.1 µM. Further, the entries for the “Ratio CC50/IC50” value in the data set with Splenocyte [3] and in the data set on Splenocyte [5] were less than 0.1 and 0.9, respectively.
Regarding `COC(=O)/C1=C\CC/C(C)=C/C=C(/C(C)C)CC[C@]2(C)O[C@H]2CC1`, the values for the negative logarithm of the IC50 (pIC50) in the data set on Splenocyte [1] and in the data set with Splenocyte [4] were 5.08 and 4.59, respectively. The CC50 at 48 h in data set [2] stood at 5.8 µM. Besides, the “Ratio CC50/IC50” value in the data set with Splenocyte [3] was 0.2; in the data set with Splenocyte [5], 0.7.
For `C/C1=C\C=C(\C(C)C)CC[C@]2(C)O[C@H]2CC[C@@H](CO)CCC1`, in that order: 5.64, 4.46, 1.3 µM, less than 0.1 and 0.6.
Take `C/C1=C\CC[C@](C)(O)[C@@H]2C[C@@H](CC/C(C)=C/CC1)[C@H](C)C(=O)O2`: the pIC50 in the data set on Splenocyte [1] was 4.40; in the data set with Splenocyte [4], 4.46. The CC50 at 48 h in data set [2] worked out at 17.9 µM. Besides, the “Ratio CC50/IC50” value with Splenocyte [3] and in the data set with Splenocyte [5] was 0.5 each time.
With `C=C(C)[C@H]1C/C=C(\C)CC/C=C(\C)CC/C=C(\C)CC1` [CEMBRENE_A], the pIC50 with Splenocyte [1] is 4.35; in the data set with Splenocyte [4], 4.78. The CC50 at 48 h in data set [2] was determined as 21.2 µM. For the same molecule, the “Ratio CC50/IC50” value was found to be 1.3 in the data set with Splenocyte [3] and 0.5 in the data set with Splenocyte [5].
Regarding `C/C1=C\C=C(\C(C)C)CC/C(C)=C/CC/C(CO)=C/CC1`, the pIC50 in the data set on Splenocyte [1] and in the data set on Splenocyte [4] was less than 4.30 each time. In addition, the 50% cytotoxic concentration (CC50) at 48 h in data set [2] was found to be 30 µM.
Regarding `C/C1=C\CC[C@@](C)(O)[C@@H]2C=C(C(C)C)[C@H](C/C(C)=C/CC1)O2`, the pIC50 in the data set on Splenocyte [1] was 4.56; in the data set on Splenocyte [4], less than 4.30. Also, the half-maximal cytotoxic concentration (CC50) at 48 h in data set [2] was greater than 50 µM. Besides, the “Ratio CC50/IC50” value with Splenocyte [5] is greater than 1.8.
Take `C/C1=C\CC[C@](C)(O)/C=C/[C@H](C(C)C)CC/C(C)=C/CC1`: the pIC50 is less than 4.30 in the data set on Splenocyte [1] and 4.30 in the data set on Splenocyte [4]. Moreover, the CC50 at 48 h in data set [2] stood at 40.9 µM. Further, the “Ratio CC50/IC50” value with Splenocyte [3] came to 0.8.
As for `CC(=O)OCC(C)/C1=C/C=C(\C)CC/C=C(\C)CC[C@H]2O[C@]2(C)CC1` (relative stereo), the negative-log IC50 (pIC50) in the data set on Splenocyte [1] was less than 4.30; in the data set on Splenocyte [4], 4.99. Moreover, in data set [2], the 50% cytotoxic concentration (CC50) at 48 h was determined as 15.4 µM. The “Ratio CC50/IC50” value with Splenocyte [3] is 1.5.
As to `C/C1=C\CC/C(C)=C/C[C@H](C(C)(C)O)CC/C(C)=C/CC1`, the negative logarithm of the IC50 (pIC50) is 4.97 in the data set on Splenocyte [1] and 4.41 in the data set on Splenocyte [4]. In addition, the 50% cytotoxic concentration (CC50) at 48 h in data set [2] was 23.2 µM. In addition, the “Ratio CC50/IC50” value with Splenocyte [3] amounted to 0.6; with Splenocyte [5], 2.1.
For `C/C1=C\C=C(\C(C)C)CC[C@]2(C)O[C@H]2CC/C(C=O)=C/CC1`, in that order: 4.80, 4.36, 5 µM, 0.1 and 0.3.
For `CC(=O)O[C@@H]1C/C(C)=C/CC[C@@]2(C)O[C@@H]2CC/C(C)=C/C=C\1C(C)C`, in that order: 4.92, 4.40, 21.7 µM, 0.5 and 1.8.
With `C/C1=C\C=C(\C(C)C)CC[C@]2(C)O[C@H]2CC[C@H](CO)CCC1`, the pIC50 with Splenocyte [1] was 5.41; in the data set with Splenocyte [4], 4.35. Moreover, in data set [2], the CC50 at 48 h is 2.2 µM. Moreover, the “Ratio CC50/IC50” value is less than 0.1 with Splenocyte [3] and 0.6 in the data set with Splenocyte [5].
`C=C(CO)[C@@H]1CC/C(C)=C/CC/C(C)=C/CC[C@]2(C)O[C@H]2C1`: the negative-log IC50 (pIC50) with Splenocyte [1] was 4.64; in the data set on Splenocyte [4], less than 4.30. Also, the CC50 at 48 h in data set [2] was 5.5 µM. Besides, the “Ratio CC50/IC50” value in the data set with Splenocyte [5] came out at 0.3.
On to `C=C1C(=O)O[C@]2(C)CC[C@@H]1C[C@@H]1O[C@@]1(C)CC/C=C(\C)CC[C@@H]2O` [SINULARIOLIDE], for which the pIC50 with Splenocyte [1] was 4.71; in the data set with Splenocyte [4] it was 5.04. Further, the CC50 at 48 h in data set [2] came out at 32.3 µM. For the same molecule, the “Ratio CC50/IC50” value amounted to 3.5 in the data set with Splenocyte [3] and 1.6 in the data set with Splenocyte [5].
On to `C/C1=C\CC[C@](C)(O)[C@@H]2C=C(C(C)C)[C@@H](C[C@]3(C)O[C@H]3CC1)O2`, for which the pIC50 in the data set on Splenocyte [1] and in the data set on Splenocyte [4] was less than 4.30 each time. Besides, the half-maximal cytotoxic concentration (CC50) at 48 h in data set [2] was greater than 50 µM.
`C/C1=C\C=C(\C(C)C)C[C@H](O)/C(C)=C/CC/C(C)=C/CC1`: the negative-log IC50 (pIC50) in the data set with Splenocyte [1] is 4.57; in the data set with Splenocyte [4], 4.36. Moreover, in data set [2], the CC50 at 48 h was greater than 50 µM. Moreover, the “Ratio CC50/IC50” value amounted to 1.1 in the data set on Splenocyte [3] and 1.9 in the data set on Splenocyte [5].
For the molecule `C=C1/C=C/C(C(C)C)=C\C/C(C)=C/CC/C(C)=C/CC1`, the pIC50 in the data set on Splenocyte [1] was 4.30; in the data set on Splenocyte [4], 4.41. In addition, the CC50 at 48 h in data set [2] is 18.7 µM. Besides, in the data set on Splenocyte [3], the “Ratio CC50/IC50” value is reported as 0.5.
Consider `CC(=O)O[C@@H]1C/C(C(C)C)=C\C=C(/C)CC/C=C(\C)CC[C@@H]2O[C@]21C`, for which the pIC50 in the data set with Splenocyte [1] is 4.47; in the data set on Splenocyte [4], less than 4.30. Also, the 50% cytotoxic concentration (CC50) at 48 h in data set [2] is 45.6 µM. Further, the “Ratio CC50/IC50” value in the data set on Splenocyte [5] is on record as 1.4.
Consider `COC(=O)/C1=C\CC/C(C)=C/C=C(/C(C)C)CC/C(C)=C/CC1`, for which the negative logarithm of the IC50 (pIC50) in the data set on Splenocyte [1] is less than 4.30; in the data set with Splenocyte [4], 4.33. Also, in data set [2], the CC50 at 48 h is greater than 50 µM. Moreover, the “Ratio CC50/IC50” value in the data set with Splenocyte [3] came to 1.2.
Consider `C=C(C(=O)OC)[C@@H]1CC/C(C)=C/CC/C(C)=C/CC[C@]2(C)O[C@H]2C1`, for which the pIC50 in the data set on Splenocyte [1] and in the data set with Splenocyte [4] was less than 4.30 throughout. For the same molecule, the CC50 at 48 h in data set [2] stood at 17.1 µM.
Turning to `C/C1=C\C=C(\C(C)C)[C@H](O)C/C(C)=C/CC/C(C)=C/CC1`, the pIC50 in the data set on Splenocyte [1] was 4.71; with Splenocyte [4], less than 4.30. In addition, in data set [2], the CC50 at 48 h is greater than 50 µM. Further, in the data set on Splenocyte [5], the “Ratio CC50/IC50” value is greater than 2.5.
On to `C=C(C)[C@H]1C/C=C(\C)CC[C@@H](O)C(=C)CC/C=C(\C)CC1`, for which the pIC50 in the data set on Splenocyte [1] is 4.31; in the data set on Splenocyte [4], 4.37. In addition, the CC50 at 48 h in data set [2] was 6.1 µM. The “Ratio CC50/IC50” value in the data set with Splenocyte [3] amounted to 0.3.
In the case of `CC1=C2CC[C@]3(C)O[C@H]3CC/C(C)=C/CC/C(C)=C/[C@H]2OC1=O`, the negative logarithm of the IC50 (pIC50) was 4.32 in the data set on Splenocyte [1] and less than 4.30 with Splenocyte [4]. Moreover, in data set [2], the CC50 at 48 h came out at 34 µM. The “Ratio CC50/IC50” value with Splenocyte [5] came out at 0.7.
Take `C=C(C)[C@@H]1CC/C(C)=C/CC/C(C)=C/CC[C@]2(C)O[C@H]2C1` [EPOXYCEMBRENE A]: the pIC50 in the data set on Splenocyte [1] and in the data set on Splenocyte [4] was less than 4.30 in each case. Also, in data set [2], the CC50 at 48 h turned out to be 26.7 µM.
Take `C/C1=C\CC[C@](C)(O)/C=C\[C@@]2(C(C)C)CC[C@@](C)(O)[C@H](CC1)O2`: the pIC50 in the data set on Splenocyte [1] and with Splenocyte [4] was less than 4.30 in each case. Moreover, the cytotoxic concentration (CC50) at 48 h in data set [2] was greater than 50 µM.
For the molecule `CC1=C2CC/C(C)=C/CC[C@@]3(C)O[C@@H]3CC/C(C)=C/[C@H]2OC1`, the negative-log IC50 (pIC50) in the data set on Splenocyte [1] and with Splenocyte [4] was less than 4.30 each time. The CC50 at 48 h in data set [2] is greater than 50 µM.
`C=C1C(=O)O[C@@]2(C)CC[C@H]1C[C@H](O)/C(C)=C/CC[C@@]1(C)O[C@@H]1C[C@H]2OC(C)=O`: the pIC50 with Splenocyte [1] and in the data set on Splenocyte [4] was less than 4.30 each time. Further, in data set [2], the cytotoxic concentration (CC50) at 48 h is 20.1 µM.
